Columns and labels:
[1] = molecular target: T1, lactate dehydrogenase (LDH) (Oryctolagus cuniculus, UniProt P13491); assay: LDH kinetic assay, spectrophotometric oxidation of NADH at 340 nm; assay type: biochemical, Rabbit; conditions: Cibacron Blue at 10.3 μM; read-out: inhibition of LDH, positive control
T1 construct: LDH from Rabbit Muscle; from tissue; host or cells: rabbit muscle
Procedure: Solutions of 100 μl of the inhibitors in DMSO were prepared to provide a final DMSO concentration of 5% of the total assay volume. […] The reaction was then initiated with 10 μl of LDH from Rabbit Muscle (0.5 μ/ml; 1:2000 dilution of 1.0 mg/ml). […] Reading of the samples was continued until 300 seconds. […] The substrate was kept at a level at least 10 times the Km.

[2] = molecular target: dihydrodipicolinate reductase (DHPR) (Escherichia coli, UniProt P04036); assay: DHPR kinetic assay, spectrophotometric oxidation of NADPH at 340 nm; assay type: biochemical; conditions: Cibacron Blue at 2.58 μM; read-out: inhibition of DHPR, positive control
Sequence of dihydrodipicolinate reductase (DHPR) (P04036 whole entry): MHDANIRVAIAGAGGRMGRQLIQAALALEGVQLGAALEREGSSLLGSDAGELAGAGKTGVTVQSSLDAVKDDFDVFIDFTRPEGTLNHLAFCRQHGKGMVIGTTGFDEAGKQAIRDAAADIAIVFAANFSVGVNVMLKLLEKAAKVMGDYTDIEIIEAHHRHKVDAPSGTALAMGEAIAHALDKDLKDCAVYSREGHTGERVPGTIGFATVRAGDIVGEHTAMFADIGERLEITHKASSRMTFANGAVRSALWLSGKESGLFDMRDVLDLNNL
Procedure: DHPR was diluted in 10 mM HEPES at a pH of 7.4. DHPS (dihydrodipicolinate synthase) was not diluted and was stored in eppindorf tubes.
The L-ASA (L-aspartate semialdehyde) solution was prepared in the following manner. […] stock solution of ASA was prepared. 100 μl of the ASA stock solution was mixed with 150 μl of concentrated NaHCO3 and 375 μl of H2O. For use in the assay, 28.8 mM L-ASA was equal to 625 μl of the solution. The L-ASA stock solution was kept at a temperature of −20° C. After dilution, the pH of the 28.8 mM solution was checked and maintained between 1 and 2.
(§1) The solution for background detection was a 945 μl solution containing 0.1 HEPES (pH 7.8), 1 mM pyruvate, 6 μM NADPH, 40 μM L-ASA, and 7 μl of 1 mg/ml DHPS at 25° C. in the volumes provided above. The sample solution was then mixed and incubated for 10 minutes. Next, 500 nM solutions of the inhibitors and enough DMSO to provide a final DMSO concentration of 5% of the total assay volume were added. The solution was mixed and incubated for an additional 6 minutes.
In DHPR samples, 5 μl of the diluted DHPR enzyme were added. The sample was mixed for 20 seconds and then the reaction was run for 10 minutes. […] Reading of the samples was continued until 300 seconds. […] The substrate was kept at a level at least 10 times the Km. The final concentration of L-ASA was about 1 mM.

[3] = molecular target: 1-deoxy-D-xylulose-5-phosphate reductase (DOXPR) (Escherichia coli, UniProt P45568); assay: DOXPR kinetic assay, spectrophotometric oxidation of NADPH at 340 nm; assay type: biochemical; conditions: Cibacron Blue at 10.32 μM; read-out: inhibition of DOXPR, positive control
Sequence of 1-deoxy-D-xylulose-5-phosphate reductase (DOXPR) (P45568 whole entry): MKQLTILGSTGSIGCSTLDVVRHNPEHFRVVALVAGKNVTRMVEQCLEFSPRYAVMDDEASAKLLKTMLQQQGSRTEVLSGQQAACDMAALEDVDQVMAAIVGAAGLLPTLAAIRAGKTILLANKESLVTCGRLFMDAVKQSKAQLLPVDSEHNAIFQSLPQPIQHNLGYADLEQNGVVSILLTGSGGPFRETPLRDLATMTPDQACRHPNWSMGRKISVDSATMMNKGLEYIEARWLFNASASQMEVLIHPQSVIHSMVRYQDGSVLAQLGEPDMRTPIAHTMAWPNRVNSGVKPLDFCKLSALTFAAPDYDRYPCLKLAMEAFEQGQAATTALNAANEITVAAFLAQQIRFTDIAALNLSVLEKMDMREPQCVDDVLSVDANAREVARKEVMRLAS
Procedure: DOXPR was diluted in 10 mM HEPES at a pH of 7.4.
Solutions of the inhibitors in DMSO were prepared to provide a final DMSO concentration of 5% of the total assay volume. […] The oxidation reaction was then initiated with 10 μl of DOXP reductoisomerase (10 μg/ml). […] Reading of the samples was continued until 300 seconds. […] The substrate was kept at a level at least 10 times the Km.

E. coli DHPR = E. coli DHPR (Escherichia coli, UniProt P04036); assay: Screening of bi-ligands on DHPR, kinetic oxidation of NADPH (Example 38); assay type: biochemical; conditions: Cibacron Blue at 2.58 μM, read-out: inhibition of DHPR, positive control
Sequence of E. coli DHPR (P04036 whole entry): as the sequence (P04036 whole entry) above
Procedure: Bi-ligands were produced by the methods of Examples 14 to 18. The bi-ligands were screened for binding to E. coli DHPR. The bi-ligands were screened using a kinetic protocol that spectrophotometrically evaluates oxidation of NADPH.
Dilution of DHPR was prepared in 10 mM HEPES at a pH of 7.4. DHPS was not diluted and was stored in eppindorf tubes.
The L-ASA solution was prepared in the following manner. […] stock solution of ASA was prepared. 100 μl of the ASA stock was mixed with 150 μl of concentrated NaHCO3 and 375 μl of H2O. For use in the assay, 28.8 mM L-ASA equal 625 μl of the solution. The L-ASA stock solution was kept at a temperature of −20° C. After dilution, the pH of the 28.8 mM solution was checked and maintained between 1 and 2.
as §1
In DHPR samples, 5 μl of the diluted DHPR enzyme were added. […] Reading of the samples was continued until 300 seconds. […]

Nc1c(S(=O)(=O)O)cc(Nc2ccc(Nc3nc(Cl)nc(Nc4ccccc4S(=O)(=O)O)n3)c(S(=O)(=O)O)c2)c2c1C(=O)c1ccccc1C2=O [Cibacron Blue, reference compound]
inhibition at 10.3 µM [1]: 50 to 70%
inhibition at 2.58 µM [2]: 70 to 80%
inhibition at 10.32 µM [3]: 70 to 80%
inhibition at 2.58 µM (E. coli DHPR): 70 to 80%
